Laboratory results as given in PubChem BioAssay AID1033 (Sanford-Burnham Center for Chemical Genomics, 2008).
The source made the active and inactive calls. How the calls were made is not given here.

Biological target: Chaperone protein DnaK (Escherichia coli (strain K12)) (UniProt P0A6Y8)
Experiment: binders of DnaK substrate-binding domain, biophysical, NMR, chaperone (AID 1033)
Details: Purified DnaK SBD, NMR ligand binding

Chaperone protein DnaK (Escherichia coli (strain K12)), sequence (P0A6Y8 whole entry, looked up, the tested form may be a part): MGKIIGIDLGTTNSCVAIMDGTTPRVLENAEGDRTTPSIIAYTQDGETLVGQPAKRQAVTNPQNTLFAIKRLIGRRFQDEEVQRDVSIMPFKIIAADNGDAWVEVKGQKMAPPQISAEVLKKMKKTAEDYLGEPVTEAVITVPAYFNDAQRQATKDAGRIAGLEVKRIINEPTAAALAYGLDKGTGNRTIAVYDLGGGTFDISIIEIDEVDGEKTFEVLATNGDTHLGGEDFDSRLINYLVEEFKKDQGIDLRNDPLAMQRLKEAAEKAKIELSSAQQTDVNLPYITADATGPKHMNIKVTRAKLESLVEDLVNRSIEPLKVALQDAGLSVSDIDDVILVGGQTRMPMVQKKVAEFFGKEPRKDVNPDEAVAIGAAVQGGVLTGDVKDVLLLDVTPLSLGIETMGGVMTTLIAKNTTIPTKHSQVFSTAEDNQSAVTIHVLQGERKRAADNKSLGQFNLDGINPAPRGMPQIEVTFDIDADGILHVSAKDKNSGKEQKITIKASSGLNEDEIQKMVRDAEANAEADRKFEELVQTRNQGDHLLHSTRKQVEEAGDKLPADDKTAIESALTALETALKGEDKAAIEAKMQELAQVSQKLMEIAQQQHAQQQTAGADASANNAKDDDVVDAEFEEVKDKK

SMILES | Kd
CC(C)(C)C(=O)Nc1nnc(SCC(N)=O)s1 | > 4 mM (inactive)
Fc1ccc2onc(C3CCNCC3)c2c1 | > 4 mM (inactive)
COc1ccc(NC(=O)CCCC(=O)O)c(OC)c1 | > 4 mM (inactive)
Cc1c(/C=N\n2cnnc2)c2ccccc2n1C | > 4 mM (inactive)
CC(C)(C)c1cc(CN)c(C(=O)O)o1 | > 4 mM (inactive)
c1ccc(CCN2CCN(CCc3ccccn3)CC2)nc1 | > 4 mM (inactive)
O=C(CSc1cccc2cccnc12)N1CCCC1 | > 4 mM (inactive)
CC(=O)Nn1c(=O)[nH]c2ccccc2c1=O | > 4 mM (inactive)
CC1(C)CC2C1CC[C@]1(C)CCC3C(C(=O)O)CC(=O)O[C@@]32C1 (stereo not given in full) | > 4 mM (inactive)
O=C(Nc1ccccc1CO)c1ccccc1F | > 4 mM (inactive)
O=c1ccc2ccc(O)cc2o1 | > 4 mM (inactive)
Cc1c(N=CN2CCOCC2)c(=O)n(C)c(=O)n1C | > 4 mM (inactive)
COc1ccc(C)cc1S(=O)(=O)NC1CCCC1 | > 4 mM (inactive)
COCC(=O)/C=C1\Sc2ccccc2N1C | > 4 mM (inactive)
Cc1cc(C)nc(/N=C(/N)N2CCC(C(N)=O)CC2)n1 | > 4 mM (inactive)
Cc1cc(C(=O)NCc2ccco2)cs1 | > 4 mM (inactive)
COc1cccc(-c2cc(=O)c3cc(OC)ccc3o2)c1 | > 4 mM (inactive)
CC(CCC(=O)O)[C@H]1CCC2C3CC[C@@H]4C[C@H](O)CC[C@]4(C)C3CC[C@@]21C (stereo not given in full) | > 4 mM (inactive)
CC(=O)Nc1cc2c(cc1C(=O)C(C)C)OCCO2 | > 4 mM (inactive)
COC(=O)c1ccc(NC(=O)CC2NCCNC2=O)cc1 (stereo not given) | > 4 mM (inactive)
COc1ccc(Cc2nccc3cc(OC)c(OC)cc23)cc1OC | > 4 mM (inactive)
Cc1cc(=O)[nH]c(NCC(=O)O)n1 | > 4 mM (inactive)

SMILES | Kd
C[C@@H]1CC[C@]2(C(=O)O)CC[C@]3(C)C(=CCC4[C@@]5(C)CC[C@H](O)C(C)(C)C5CC[C@]43C)C2[C@H]1C (stereo not given in full) | > 4 mM (inactive)
CC1(C)Cc2c(c(-c3ccco3)[nH]c(=O)c2C#N)CO1 | > 4 mM (inactive)
CC(=O)c1c(C)nc(-c2ccc(Cl)cc2Cl)n1O | > 4 mM (inactive)
Cc1sc2nc(-c3ccco3)oc(=O)c2c1C | > 4 mM (inactive)
Cc1ccc(-n2ncc(C#N)c2/N=C/N(C)C)cc1 | > 4 mM (inactive)
COc1cc2c(c(OC)c1OC)-c1ccc(OC)c(=O)cc1[C@@H](NC(C)=O)CC2 | > 4 mM (inactive)
CC1=CC(=O)C2C(C)(C)CCC[C@]2(C)[C@@]1(O)CCc1ccoc1 (stereo not given in full) | > 4 mM (inactive)
CC(=O)N1CC2(C)CN(C(C)=O)CC(C)(C1)C2O (stereo not given) | > 4 mM (inactive)
NC(=O)NC(=O)Nc1ccc(Cl)cc1 | > 4 mM (inactive)
CN1CCC(N(C)Cc2cccnc2)CC1 | > 4 mM (inactive)
Cc1nn(CC(=O)Nc2ccccn2)c(=O)c2ccccc12 | > 4 mM (inactive)
O=C(c1ccccc1)c1ccccc1C(=O)N1CCOCC1 | > 4 mM (inactive)
Cc1onc(-c2ccccc2)c1C(=O)Nc1ccncc1 | > 4 mM (inactive)
CSc1nn(-c2ccccc2)c(N)c1C#N | > 4 mM (inactive)
CC1CN(C2=NCCN2)CC(C)O1 (stereo not given) | > 4 mM (inactive)
CCOC(=O)c1snnc1-c1ccccc1 | > 4 mM (inactive)
COc1cc(O)c2c(=O)c(O)c(-c3ccc(O)c(O)c3)oc2c1 | > 4 mM (inactive)
CCNC(CC(=O)Nc1cccc([N+](=O)[O-])c1)C(=O)O (stereo not given) | > 4 mM (inactive)
O=C(O)C1CSC(c2ccco2)N1 (stereo not given) | > 4 mM (inactive)
NC(C(=O)O)C(O)c1ccccc1 (stereo not given) | > 4 mM (inactive)
Cc1cc(C)n(-c2nc(N)cc(=O)[nH]2)n1 | > 4 mM (inactive)
NC(=S)NC(=O)CN1C(=O)c2ccccc2C1=O | > 4 mM (inactive)

SMILES | Kd
CC[C@@]1(O)C[C@H](O[C@H]2C[C@H](N(C)C)[C@H](O)[C@H](C)O2)c2c(cc3c(c2O)C(=O)c2c(O)cccc2C3=O)[C@H]1C(=O)OC | > 4 mM (inactive)
COC(=O)c1c(C)cc(OC)cc1O | > 4 mM (inactive)
COC(=O)c1nc(-c2ccccc2)oc1N(C)C | > 4 mM (inactive)
Cn1nc(C(=O)N2CCOCC2)c2ccccc2c1=O | > 4 mM (inactive)
C=CCn1c(=S)[nH]c2ccc(Br)cc2c1=O | > 4 mM (inactive)
O=[n+]1c2c(n([O-])c3ccccc31)CCCC2 | > 4 mM (inactive)
CCC(=O)Nc1cc(C(C)C)c(O)cc1C | > 4 mM (inactive)
c1cncc(C(N2CCOCC2)N2CCOCC2)c1 | > 4 mM (inactive)
COc1cc(C(=S)N2CCOCC2)ccc1O | > 4 mM (inactive)
CC12CNCC(C)(CNC1)C2O (stereo not given) | > 4 mM (inactive)
COc1cc2c(cc1OC)[C@@H]1C(=O)c3ccc4c(c3O[C@@H]1CO2)CC(C(C)C)O4 (stereo not given in full) | > 4 mM (inactive)
O=C(c1cnsn1)N1CCN(c2ccccc2)CC1 | > 4 mM (inactive)
O=C(NCC1CCCCC1)c1ccco1 | > 4 mM (inactive)
NS(=O)(=O)c1ccc(NC(=O)c2ccccc2F)cc1 | > 4 mM (inactive)
Cc1cc(N)n(-c2ccccc2)n1 | > 4 mM (inactive)
N=C1/C(=C\c2ccccc2)C(=O)N=C2SC=NN12 | > 4 mM (inactive)
C=C[C@@](C)(O)CCC1C(=C)C[C@H](O)C2C(C)(C)CCCC12C (stereo not given in full) | > 4 mM (inactive)
O=C(NCN1CCOCC1)c1cccnc1 | > 4 mM (inactive)
COc1cccc(N2CCNCC2)c1 | > 4 mM (inactive)
COc1cc(/C=C/C(=O)/C=C(O)/C=C/c2ccc(O)c(OC)c2)ccc1O | > 4 mM (inactive)
O=C(O)CC[N+](=O)[O-] | > 4 mM (inactive)
Cc1ccccc1OCC(=O)O | > 4 mM (inactive)

SMILES | Kd
COCC(=O)Nc1ccc(C)c(Cl)c1 | > 4 mM (inactive)
O=c1[nH]c(=S)[nH]c2c1CCC2 | > 4 mM (inactive)
COc1cc2[nH]c(=S)n(C)c(=O)c2cc1OC | > 4 mM (inactive)
Nc1nc(SCc2ccc3c(c2)OCO3)n[nH]1 | > 4 mM (inactive)
Cc1noc(-c2ccccc2)c1CO | > 4 mM (inactive)
COC1C(O)C(O)C(O)[C@@H](O)C1O (stereo not given in full) | > 4 mM (inactive)
CCC(CO)NC(=O)c1snnc1C (stereo not given) | > 4 mM (inactive)
CCNC(=S)NS(=O)(=O)c1ccccc1 | > 4 mM (inactive)
C[C@@H]1O[C@@H](O[C@H]2[C@H](Oc3cc(O)c4c(=O)cc(-c5ccc(O)cc5)oc4c3)O[C@H](CO)[C@@H](O)[C@@H]2O)[C@H](O)[C@H](O)[C@H]1O | > 4 mM (inactive)
O=C(O)c1ncoc1-c1ccccc1 | > 4 mM (inactive)
O=C(O)CSCc1c(F)cccc1Cl | > 4 mM (inactive)
CC(O)(C(=O)O)c1ccccc1 (stereo not given) | > 4 mM (inactive)
CC(=O)O[C@H]1CCC2(C)C3=C(CCC2C1(C)C)[C@]1(C)CCC(C(C)CCC=C(C)C)[C@@]1(C)CC3 (stereo not given in full) | > 4 mM (inactive)
Cn1cc(Cl)c(C(=O)Nc2ccc(F)cc2F)n1 | > 4 mM (inactive)
CC(=O)Nc1cc(N2C(=O)C=CC2=O)ccc1Cl | > 4 mM (inactive)
O=C(O)c1sccc1-n1cccc1 | > 4 mM (inactive)
CC(C)CC(=O)NC1CCSC1=O (stereo not given) | > 4 mM (inactive)
NN1C(=O)CSC1=Nc1ccccc1 | > 4 mM (inactive)
O=C(CC1SC(=O)NC1=O)Nc1nccs1 (stereo not given) | > 4 mM (inactive)
C[C@H](CCC(=O)O)[C@H]1CCC2C3C(CC[C@@]21C)[C@@]1(C)CC[C@@H](O)C[C@H]1C[C@@H]3O (stereo not given in full) | > 4 mM (inactive)
C=CCNC(=O)c1nn2cccnc2c1Cl | > 4 mM (inactive)
CCOC(=O)N1CCN(c2ncnc3c2cnn3C)CC1 | > 4 mM (inactive)

SMILES | Kd
COc1cc(O)ccc1C(C)=O | > 4 mM (inactive)
NC(=O)c1cccc(N2C(=O)C=CC2=O)c1 | > 4 mM (inactive)
O=C(c1cccs1)N1CCCc2ccccc21 | > 4 mM (inactive)
COc1ccc(-c2cc(=O)c3ccccc3o2)cc1 | > 4 mM (inactive)
O=C(Nn1cnnc1)c1ccccc1-c1ccccc1 | > 4 mM (inactive)
CC(C)C(C)/C=C/C(C)C1CCC2C3=CC=C4CC(O)CCC4(C)C3CCC21C (stereo not given) | > 4 mM (inactive)
Cc1nn(CC(=O)N2CCCCC2)c(=O)c2ccccc12 | > 4 mM (inactive)
O=C(NCc1cccc2ccccc12)c1cccs1 | < 0.2 mM
CC1=NNC(=O)C1CCc1ccncc1 (stereo not given) | > 4 mM (inactive)
N#CCCn1c(=O)oc2ccccc21 | > 4 mM (inactive)
NC(=O)c1c[nH]c2ccccc12 | > 4 mM (inactive)
Nc1ncnc(NC2CCS(=O)(=O)C2)c1[N+](=O)[O-] (stereo not given) | > 4 mM (inactive)
COc1cc(/C=C2/NC(=S)NC2=O)cc(Cl)c1O | > 4 mM (inactive)
OCc1ccc(CN2CCOCC2)cc1 | > 4 mM (inactive)
NC1=NN(c2ccccc2)C(=O)C1 | > 4 mM (inactive)
NCc1ccc(-n2cccn2)cc1 | > 4 mM (inactive)
CSc1ccc2nnc(-c3cccnc3)n2n1 | > 4 mM (inactive)
Cc1cc(N)no1 | > 4 mM (inactive)
COC(=O)C[C@@H]1C2(C)C(=O)[C@@H](CC3=C4CC(=O)O[C@@H](c5ccoc5)[C@]4(C)CCC32)[C@H](OC(C)=O)C1(C)C (stereo not given in full) | > 4 mM (inactive)
O=c1[nH]cc(COCc2ccccc2)c(=O)[nH]1 | > 4 mM (inactive)
Cc1cc(=O)[nH]c(N2CCCCC2)n1 | > 4 mM (inactive)
Nc1c(F)c(F)nc(F)c1F | > 4 mM (inactive)
